Measured values as given in US6486098B1, “Herbicidal phenoxypropionic acid N-alkyl-N-2-fluorophenyl amide compounds” (Dongbu Hannong Chemical Co. Ltd., priority 1999, dated 2002).

Columns and labels:
DIGSA (Large crabgrass) = assay: Leaf treatment test, large crabgrass; format: in vivo, Digitaria Sanguinalis (L.) SCOP; settings: 14 days after treatment
Procedure: (§1) Seeds of rice, wheat, barley, corn, cotton, barnyard grass, common sorgum, large crabgrass and fall panicum were seeded at a pot with a surface area of 600 cm^2. […] 14 days after the treatment, the degree of damage to the plants was rated in % damage in comparison to the development of untreated control.

PANDI (Fall panicum) = assay: Leaf treatment test, fall panicum; format: in vivo, Panicum dichotomiflorum Michx; settings: 14 days after treatment
Procedure: as §1

GLXMA (Soy bean) = assay: Leaf treatment test, soy bean; format: in vivo, Glycine max (L.) MERR; settings: 14 days after treatment
ZEAMX (Corn) = assay: Leaf treatment test, corn; format: in vivo, Zea mays L.; settings: 14 days after treatment
Procedure: as §1

ORYSA (Rice) = assay: Leaf treatment test, rice; format: in vivo, Oryza sativa L. cv. Dongjin; settings: 14 days after treatment
Procedure: as §1

TRZAW (Wheat) = assay: Leaf treatment test, wheat; format: in vivo, Triticum aestivum L.; settings: 14 days after treatment
Procedure: as §1

GOSHI (Cotton) = assay: Leaf treatment test, cotton; format: in vivo, Gossypium; settings: 14 days after treatment
Procedure: as §1

SORBI (Common sorgum) = assay: Leaf treatment test, common sorgum; format: in vivo, Andropogon sorghum; settings: 14 days after treatment
Procedure: as §1

ECHCG (Barnyard grass) = assay: Leaf treatment test, barnyard grass; format: in vivo, Echinochloa crus-galli Beauv. var. caudata Kitagawa; settings: leaf treatment at three leaves, 14 days after treatment
Procedure: as §1

Measured: degree of damage to the plants (% damage)

CCN(C(=O)C(C)Oc1ccc(Oc2nc3ccc(Cl)cc3o2)cc1)c1ccccc1F (stereo not drawn) [Compound No. 2]
100%: DIGSA (Large crabgrass); treated amount 0.4 kg/ha | PANDI (Fall panicum); treated amount 0.1 kg/ha | PANDI (Fall panicum); treated amount 0.4 kg/ha | SORBI (Common sorgum); treated amount 0.4 kg/ha
30%: DIGSA (Large crabgrass); treated amount 0.025 kg/ha
20%: ECHCG (Barnyard grass); treated amount 0.025 kg/ha
0%: PANDI (Fall panicum); treated amount 0.025 kg/ha | GLXMA (Soy bean); treated amount 0.025 kg/ha | GLXMA (Soy bean); treated amount 0.1 kg/ha | ORYSA (Rice); treated amount 0.025 kg/ha | ORYSA (Rice); treated amount 0.1 kg/ha | ORYSA (Rice); treated amount 0.4 kg/ha | TRZAW (Wheat); treated amount 0.025 kg/ha | TRZAW (Wheat); treated amount 0.1 kg/ha | TRZAW (Wheat); treated amount 0.4 kg/ha | GOSHI (Cotton); treated amount 0.025 kg/ha | GOSHI (Cotton); treated amount 0.1 kg/ha | GOSHI (Cotton); treated amount 0.4 kg/ha
80%: ECHCG (Barnyard grass); treated amount 0.1 kg/ha
70%: ZEAMX (Corn); treated amount 0.4 kg/ha
40%: SORBI (Common sorgum); treated amount 0.025 kg/ha
10%: GLXMA (Soy bean); treated amount 0.4 kg/ha | ZEAMX (Corn); treated amount 0.1 kg/ha
95%: DIGSA (Large crabgrass); treated amount 0.1 kg/ha | SORBI (Common sorgum); treated amount 0.1 kg/ha | ECHCG (Barnyard grass); treated amount 0.4 kg/ha
5%: ZEAMX (Corn); treated amount 0.025 kg/ha

CC(Oc1ccc(Oc2nc3ccc(Cl)cc3o2)cc1)C(=O)N(C)c1cc(F)c(F)cc1F (stereo not drawn) [Compound No. 3, 2-[4-(6-Chloro-2-benzoxazoyloxy)-phenoxy]propionic Acid-N-methyl-N-(2,4,5-trifluorophenyl)amide]
30%: DIGSA (Large crabgrass); treated amount 0.025 kg/ha
0%: PANDI (Fall panicum); treated amount 0.025 kg/ha | PANDI (Fall panicum); treated amount 0.1 kg/ha | PANDI (Fall panicum); treated amount 0.4 kg/ha | GLXMA (Soy bean); treated amount 0.025 kg/ha | GLXMA (Soy bean); treated amount 0.1 kg/ha | ZEAMX (Corn); treated amount 0.025 kg/ha | ZEAMX (Corn); treated amount 0.1 kg/ha | ZEAMX (Corn); treated amount 0.4 kg/ha | ORYSA (Rice); treated amount 0.025 kg/ha | ORYSA (Rice); treated amount 0.1 kg/ha | TRZAW (Wheat); treated amount 0.025 kg/ha | TRZAW (Wheat); treated amount 0.1 kg/ha | TRZAW (Wheat); treated amount 0.4 kg/ha | GOSHI (Cotton); treated amount 0.025 kg/ha | GOSHI (Cotton); treated amount 0.1 kg/ha | GOSHI (Cotton); treated amount 0.4 kg/ha | ECHCG (Barnyard grass); treated amount 0.025 kg/ha
90%: DIGSA (Large crabgrass); treated amount 0.1 kg/ha
40%: SORBI (Common sorgum); treated amount 0.025 kg/ha
95%: ECHCG (Barnyard grass); treated amount 0.4 kg/ha
60%: ECHCG (Barnyard grass); treated amount 0.1 kg/ha
10%: GLXMA (Soy bean); treated amount 0.4 kg/ha | ORYSA (Rice); treated amount 0.4 kg/ha
100%: DIGSA (Large crabgrass); treated amount 0.4 kg/ha | SORBI (Common sorgum); treated amount 0.1 kg/ha | SORBI (Common sorgum); treated amount 0.4 kg/ha

CC(Oc1ccc(Oc2nc3ccc(Cl)cc3o2)cc1)C(=O)N(C)c1c(F)cccc1F (stereo not drawn) [Compound No. 4, 2-[4-(6-Chloro-2-benzoxazoyloxy)-phenoxy]propionic Acid-N-methyl-N-(2,6-difluoro-phenyl)amide]
0%: GLXMA (Soy bean); treated amount 0.025 kg/ha | GLXMA (Soy bean); treated amount 0.1 kg/ha | ORYSA (Rice); treated amount 0.025 kg/ha | TRZAW (Wheat); treated amount 0.025 kg/ha | TRZAW (Wheat); treated amount 0.1 kg/ha | TRZAW (Wheat); treated amount 0.4 kg/ha | GOSHI (Cotton); treated amount 0.025 kg/ha | GOSHI (Cotton); treated amount 0.1 kg/ha | GOSHI (Cotton); treated amount 0.4 kg/ha
100%: DIGSA (Large crabgrass); treated amount 0.1 kg/ha | DIGSA (Large crabgrass); treated amount 0.4 kg/ha | PANDI (Fall panicum); treated amount 0.1 kg/ha | PANDI (Fall panicum); treated amount 0.4 kg/ha | ZEAMX (Corn); treated amount 0.4 kg/ha | SORBI (Common sorgum); treated amount 0.1 kg/ha | SORBI (Common sorgum); treated amount 0.4 kg/ha | ECHCG (Barnyard grass); treated amount 0.4 kg/ha
80%: ECHCG (Barnyard grass); treated amount 0.025 kg/ha
20%: GLXMA (Soy bean); treated amount 0.4 kg/ha | ORYSA (Rice); treated amount 0.1 kg/ha
40%: PANDI (Fall panicum); treated amount 0.025 kg/ha | ZEAMX (Corn); treated amount 0.1 kg/ha
90%: DIGSA (Large crabgrass); treated amount 0.025 kg/ha
30%: ORYSA (Rice); treated amount 0.4 kg/ha
10%: ZEAMX (Corn); treated amount 0.025 kg/ha
95%: SORBI (Common sorgum); treated amount 0.025 kg/ha | ECHCG (Barnyard grass); treated amount 0.1 kg/ha

CC(Oc1ccc(Oc2nc3ccc(Cl)cc3o2)cc1)C(=O)N(C)c1ccc(F)cc1F (stereo not drawn) [Compound No. 5, 2-[4-(6-Chloro-2-benzoxazoyloxy)-phenoxy]propionic Acid-N-(2,4-difluorophenyl)-N-methyl Amide]
0%: GLXMA (Soy bean); treated amount 0.025 kg/ha | GLXMA (Soy bean); treated amount 0.1 kg/ha | GLXMA (Soy bean); treated amount 0.4 kg/ha | ZEAMX (Corn); treated amount 0.025 kg/ha | ORYSA (Rice); treated amount 0.025 kg/ha | ORYSA (Rice); treated amount 0.1 kg/ha | ORYSA (Rice); treated amount 0.4 kg/ha | TRZAW (Wheat); treated amount 0.025 kg/ha | TRZAW (Wheat); treated amount 0.1 kg/ha | TRZAW (Wheat); treated amount 0.4 kg/ha | GOSHI (Cotton); treated amount 0.025 kg/ha | GOSHI (Cotton); treated amount 0.1 kg/ha | GOSHI (Cotton); treated amount 0.4 kg/ha | ECHCG (Barnyard grass); treated amount 0.025 kg/ha
40%: PANDI (Fall panicum); treated amount 0.025 kg/ha
30%: ZEAMX (Corn); treated amount 0.1 kg/ha
80%: PANDI (Fall panicum); treated amount 0.1 kg/ha
100%: DIGSA (Large crabgrass); treated amount 0.025 kg/ha | DIGSA (Large crabgrass); treated amount 0.1 kg/ha | DIGSA (Large crabgrass); treated amount 0.4 kg/ha | PANDI (Fall panicum); treated amount 0.4 kg/ha | ZEAMX (Corn); treated amount 0.4 kg/ha | SORBI (Common sorgum); treated amount 0.025 kg/ha | SORBI (Common sorgum); treated amount 0.1 kg/ha | SORBI (Common sorgum); treated amount 0.4 kg/ha | ECHCG (Barnyard grass); treated amount 0.1 kg/ha | ECHCG (Barnyard grass); treated amount 0.4 kg/ha

CC(Oc1ccc(Oc2nc3ccc(Cl)cc3o2)cc1)C(=O)N(C)c1c(F)ccc(F)c1F (stereo not drawn) [Compound No. 6, 2-[4-(6-Chloro-2-benzoxazoyloxy)-phenoxy]propionic Acid-N-methyl-N-(2,3,6-trifluorophenyl)amide]
30%: ZEAMX (Corn); treated amount 0.025 kg/ha
95%: ECHCG (Barnyard grass); treated amount 0.025 kg/ha
100%: DIGSA (Large crabgrass); treated amount 0.1 kg/ha | DIGSA (Large crabgrass); treated amount 0.4 kg/ha | PANDI (Fall panicum); treated amount 0.1 kg/ha | PANDI (Fall panicum); treated amount 0.4 kg/ha | ZEAMX (Corn); treated amount 0.1 kg/ha | ZEAMX (Corn); treated amount 0.4 kg/ha | SORBI (Common sorgum); treated amount 0.025 kg/ha | SORBI (Common sorgum); treated amount 0.1 kg/ha | SORBI (Common sorgum); treated amount 0.4 kg/ha | ECHCG (Barnyard grass); treated amount 0.1 kg/ha | ECHCG (Barnyard grass); treated amount 0.4 kg/ha
0%: GLXMA (Soy bean); treated amount 0.025 kg/ha | GLXMA (Soy bean); treated amount 0.1 kg/ha | GLXMA (Soy bean); treated amount 0.4 kg/ha | ORYSA (Rice); treated amount 0.025 kg/ha | ORYSA (Rice); treated amount 0.1 kg/ha | TRZAW (Wheat); treated amount 0.025 kg/ha | TRZAW (Wheat); treated amount 0.1 kg/ha | TRZAW (Wheat); treated amount 0.4 kg/ha | GOSHI (Cotton); treated amount 0.025 kg/ha | GOSHI (Cotton); treated amount 0.1 kg/ha | GOSHI (Cotton); treated amount 0.4 kg/ha
20%: ORYSA (Rice); treated amount 0.4 kg/ha
40%: DIGSA (Large crabgrass); treated amount 0.025 kg/ha | PANDI (Fall panicum); treated amount 0.025 kg/ha
